Patent US20100041642A1, “UREA INHIBITORS OF MAP KINASES” (LOCUS PHARMACEUTICALS, INC., priority 2008, published 2010)

Biological target: p38 (Homo sapiens, UniProt Q16539)
Assay: Protein Kinase Assay (33P incorporation from γ-[33P]ATP into GST-ATF-2)
Assay type: biochemical
Conditions: 2 nM p38, preincubated 20 min at 30° C.; 10 uM cold ATP, 2 uM GST-ATF2, 70 min; read-out: ACT. (Activity), IC50 category in Protein Kinase Assay
Procedure, shortened: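 Compounds preincubated 20 min at 30 °C with 2 nM p38; reaction started with 2 uM GST-ATF-2 (aa 19-96) and 10 uM ATP plus γ-[33P]ATP, pH 7.5, 70 min at 30 °C, 2% DMSO. Phosphoric acid stop; 33P-labelled substrate captured on phosphocellulose and counted by scintillation.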

Chain of p38 (Q16539 whole entry): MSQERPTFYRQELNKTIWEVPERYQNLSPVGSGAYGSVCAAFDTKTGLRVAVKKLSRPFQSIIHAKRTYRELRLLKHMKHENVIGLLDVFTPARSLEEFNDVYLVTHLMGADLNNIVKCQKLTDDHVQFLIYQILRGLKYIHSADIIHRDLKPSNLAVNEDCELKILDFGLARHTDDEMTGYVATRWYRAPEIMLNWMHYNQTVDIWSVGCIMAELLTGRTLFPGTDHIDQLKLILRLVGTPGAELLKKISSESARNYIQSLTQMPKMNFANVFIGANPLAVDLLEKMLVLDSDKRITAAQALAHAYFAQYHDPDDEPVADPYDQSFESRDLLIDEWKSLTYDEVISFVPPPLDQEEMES

SMILES | IC50 [nM]
Cc1ccc(NC(=O)Nc2sc(C(C)(C)C)cc2C(=O)N2CCC(=O)N(C)CC2)cc1-c1ccc(N2CCOCC2)cn1 [1-(5-tert-butyl-3-(4-methyl-5-oxo-1,4-diazepane-1-carbonyl)thiophen-2-yl)-3-(4-methyl-3-(5-morpholinopyridin-2-yl)phenyl)urea] | < 100
Cc1ccc(NC(=O)Nc2sc(C(C)(C)C)cc2C(=O)N2CCNC(=O)CC2)cc1-c1cnc(N2CCOCC2)nc1 [1-(5-tert-butyl-3-(5-oxo-1,4-diazepane-1-carbonyl)thiophen-2-yl)-3-(4-methyl-3-(2-morpholinopyrimidin-5-yl)phenyl)urea] | < 100
Cc1ccc(NC(=O)Nc2sc(C(C)(C)C)cc2C(=O)N2CCNC(=O)CC2)cc1-c1cccnc1 [1-(5-tert-butyl-3-(5-oxo-1,4-diazepane-1-carbonyl)thiophen-2-yl)-3-(4-methyl-3-(pyridin-3-yl)phenyl)urea] | < 100
Cc1ccc(NC(=O)Nc2sc(C(C)(C)C)cc2C(=O)N2CCNC(=O)C2(C)C)cc1-c1cccc[n+]1[O-] [2-(5-(3-(5-tert-butyl-3-(2,2-dimethyl-3-oxopiperazine-1-carbonyl)thiophen-2-yl)ureido)-2-methylphenyl)pyridine 1-oxide] | < 100
Cc1ccc(NC(=O)Nc2sc(C(C)(C)C)cc2C(=O)N2CCNC(=O)C2(C)C)cc1-c1cc[n+]([O-])cc1 [4-(5-(3-(5-tert-butyl-3-(2,2-dimethyl-3-oxopiperazine-1-carbonyl)thiophen-2-yl)ureido)-2-methylphenyl)pyridine 1-oxide] | < 100
Cc1ccc(NC(=O)Nc2sc(C(C)(C)C)cc2C(=O)N2CCN(C)C(=O)C2(C)C)cc1-c1ccc(C[N+]2([O-])CCOCC2)[n+]([O-])c1 [4-((5-(5-(3-(5-tert-butyl-3-(2,2,4-trimethyl-3-oxopiperazine-1-carbonyl)thiophen-2-yl)ureido)-2-methylphenyl)-1-oxidopyridin-2-yl)methyl)morpholine 4-oxide] | < 1000
Cc1ccc(NC(=O)Nc2sc(C(C)(C)C)cc2C(=O)N2CCN(C)C(=O)C2(C)C)cc1-c1ccc(C[N+]2([O-])CCOCC2)nc1 [4-((5-(5-(3-(5-tert-butyl-3-(2,2,4-trimethyl-3-oxopiperazine-1-carbonyl)thiophen-2-yl)ureido)-2-methylphenyl)pyridin-2-yl)methyl)morpholine 4-oxide] | < 100
CCNC(=O)c1ccc(-c2cc(NC(=O)Nc3cn(C(C)(C)C)nc3C(=O)N3CCN(C)C(=O)C3(C)C)ccc2C)cn1 [5-(5-(3-(1-tert-butyl-3-(2,2,4-trimethyl-3-oxopiperazine-1-carbonyl)-1H-pyrazol-4-yl)ureido)-2-methylphenyl)-N-ethylpyridine-2-carboxamide] | < 100
CCNC(=O)c1ccc(-c2cc(NC(=O)Nc3cn(C(C)(C)C)nc3C(=O)N3CCNC(=O)C3(C)C)ccc2C)cn1 [5-(5-(3-(1-tert-butyl-3-(2,2-dimethyl-3-oxopiperazine-1-carbonyl)-1H-pyrazol-4-yl)ureido)-2-methylphenyl)-N-ethylpyridine-2-carboxamide] | < 100
CCNC(=O)c1ccc(-c2cc(NC(=O)Nc3sc(C(C)(C)C)nc3C(=O)N3CCN(C)C(=O)C3(C)C)ccc2C)cn1 [5-(5-(3-(2-tert-butyl-4-(2,2,4-trimethyl-3-oxopiperazine-1-carbonyl)thiazol-5-yl)ureido)-2-methylphenyl)-N-ethylpyridine-2-carboxamide] | < 100
CCNC(=O)c1ccc(-c2cc(NC(=O)Nc3cc(C(C)(C)C)oc3C(=O)N3CCN(C)C(=O)C3(C)C)ccc2C)cn1 [5-(5-(3-(5-tert-butyl-2-(2,2,4-trimethyl-3-oxopiperazine-1-carbonyl)furan-3-yl)ureido)-2-methylphenyl)-N-ethylpyridine-2-carboxamide] | < 100
CCNC(=O)c1ccc(-c2cc(NC(=O)Nc3cc(C(C)(C)C)sc3C(=O)N3CCN(C)C(=O)C3(C)C)ccc2C)cn1 [5-(5-(3-(5-tert-butyl-2-(2,2,4-trimethyl-3-oxopiperazine-1-carbonyl)thiophen-3-yl)ureido)-2-methylphenyl)-N-ethylpyridine-2-carboxamide] | < 100

The next lines start with the values.

IC50 [nM] | SMILES
< 100 | COCCNC(=O)c1ccc(-c2cc(NC(=O)Nc3sc(C(C)(C)C)cc3C(=O)N3CCN(C)C(=O)C3(C)C)ccc2C)cn1 [5-(5-(3-(5-tert-butyl-3-(2,2,4-trimethyl-3-oxopiperazine-1-carbonyl)thiophen-2-yl)ureido)-2-methylphenyl)-N-(2-methoxyethyl)pyridine-2-carboxamide]
< 100 | CCNC(=O)c1ccc(-c2cc(NC(=O)Nc3sc(C(C)(C)C)cc3C(=O)N3CCN(C)C(=O)C3(C)C)ccc2C)cn1 [5-(5-(3-(5-tert-butyl-3-(2,2,4-trimethyl-3-oxopiperazine-1-carbonyl)thiophen-2-yl)ureido)-2-methylphenyl)-N-ethylpyridine-2-carboxamide]
< 100 | CON(C)C(=O)c1ccc(-c2cc(NC(=O)Nc3sc(C(C)(C)C)cc3C(=O)N3CCN(C)C(=O)C3(C)C)ccc2C)cn1 [5-(5-(3-(5-tert-butyl-3-(2,2,4-trimethyl-3-oxopiperazine-1-carbonyl)thiophen-2-yl)ureido)-2-methylphenyl)-N-methoxy-N-methylpyridine-2-carboxamide]
< 100 | Cc1ccc(NC(=O)Nc2sc(C(C)(C)C)cc2C(=O)N2CCN(C)C(=O)C2(C)C)cc1-c1ccc(C(N)=O)nc1 [5-(5-(3-(5-tert-butyl-3-(2,2,4-trimethyl-3-oxopiperazine-1-carbonyl)thiophen-2-yl)ureido)-2-methylphenyl)pyridine-2-carboxamide]
< 100 | CCNC(=O)c1ccc(-c2cc(NC(=O)Nc3sc(C(C)(C)C)cc3C(=O)N3CCNC(=O)C3(C)C)ccc2C)cn1 [5-(5-(3-(5-tert-butyl-3-(2,2-dimethyl-3-oxopiperazine-1-carbonyl)thiophen-2-yl)ureido)-2-methylphenyl)-N-ethylpyridine-2-carboxamide]
< 100 | CNC(=O)c1ccc(-c2cc(NC(=O)Nc3sc(C(C)(C)C)cc3C(=O)N3CCNC(=O)C3(C)C)ccc2C)cn1 [5-(5-(3-(5-tert-butyl-3-(2,2-dimethyl-3-oxopiperazine-1-carbonyl)thiophen-2-yl)ureido)-2-methylphenyl)-N-methylpyridine-2-carboxamide]
< 100 | Cc1ccc(NC(=O)Nc2sc(C(C)(C)C)cc2C(=O)N2CCN(C)C(=O)C2(C)C)cc1-c1ccc(NS(C)(=O)=O)nc1 [N-(5-(5-(3-(5-tert-butyl-3-(2,2,4-trimethyl-3-oxopiperazine-1-carbonyl)thiophen-2-yl)ureido)-2-methylphenyl)pyridin-2-yl)methanesulfonamide]
< 100 | COC(=O)CN1CCN(C(=O)c2cc(C(C)(C)C)sc2NC(=O)Nc2ccc(C)c(-c3ccncc3)c2)C(C)(C)C1=O [methyl 2-(4-(2-tert-butyl-5-(3-(4-methyl-3-(pyridin-4-yl)phenyl)ureido)thiophene-4-carbonyl)-3,3-dimethyl-2-oxopiperazin-1-yl)acetate]
